From patent publication US20240158446A1, “CYCLIC COMPOUND HAVING SELECTIVE INHIBITORY ACTION ON KRAS OVER HRAS AND NRAS” (CHUGAI SEIYAKU KABUSHIKI KAISHA, priority 2021, published 2024)

Tests used:
[1] = biological target: GDP-bound NRAS wild-type protein (Homo sapiens, UniProt P01111); assay: Binding to NRAS by surface plasmon resonance (SPR), Single Cycle Kinetics; settings: for NRAS/KRAS (ratio of KD value with respect to GDP-bound NRAS wild-type protein to KD value with respect to KRAS): SPR KD ratio NRAS/KRAS, class symbols
Chain of GDP-bound NRAS wild-type protein (P01111 whole entry): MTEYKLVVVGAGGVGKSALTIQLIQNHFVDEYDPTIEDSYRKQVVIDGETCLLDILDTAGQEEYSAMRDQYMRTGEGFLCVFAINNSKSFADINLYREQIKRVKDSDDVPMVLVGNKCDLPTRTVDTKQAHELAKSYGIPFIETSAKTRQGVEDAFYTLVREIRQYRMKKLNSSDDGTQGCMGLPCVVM

[2] = biological target: GDP-bound HRAS wild-type protein (Homo sapiens, UniProt P01112); assay: Binding to HRAS by surface plasmon resonance (SPR), Single Cycle Kinetics; settings: for HRAS/KRAS (ratio of KD value with respect to GDP-bound HRAS wild-type protein to KD value with respect to KRAS): SPR KD ratio HRAS/KRAS, class symbols
Chain of GDP-bound HRAS wild-type protein (P01112 whole entry): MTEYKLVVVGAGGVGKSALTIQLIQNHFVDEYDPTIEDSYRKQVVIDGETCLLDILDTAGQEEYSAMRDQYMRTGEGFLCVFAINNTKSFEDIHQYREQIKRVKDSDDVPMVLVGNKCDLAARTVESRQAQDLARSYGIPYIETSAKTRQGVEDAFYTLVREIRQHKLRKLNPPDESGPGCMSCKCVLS

[3] = SPR, GDP-bound NRAS wild-type protein vs GDP-bound KRAS wild-type protein
[4] = SPR, GDP-bound HRAS wild-type protein vs GDP-bound KRAS wild-type protein

For `CCCC[C@H]1C(=O)N[C@@H]([C@@H](C)CC)C(=O)N(C)CC(=O)N(C)[C@H]2C/C=C\CCN(C2=O)[C@@H](Cc2ccc(C(F)(F)F)cc2)C(=O)N(C)CC(=O)N[C@@H](CCc2ccc(C(F)(F)F)c(Cl)c2)C(=O)N2C[C@H](OCC)C[C@H]2C(=O)NC2(CCC2)C(=O)N(C)[C@@H](C2CCCC2)C(=O)N(C)[C@H](C(=O)N(C)CC)CC(=O)N1C` [PP2841], the “NRAS/KRAS (ratio of KD value with respect to GDP-bound NRAS wild-type protein to KD value with respect to KRAS)” value [1] was “A (a compound having 10 or more and less than 20 is denoted as A)” and the “HRAS/KRAS (ratio of KD value with respect to GDP-bound HRAS wild-type protein to KD value with respect to KRAS)” value [2] was “A (a compound having 10 or more and less than 20 is denoted as A)”.
For `CCC[C@H]1C(=O)N[C@@H]([C@H](C)CC)C(=O)N(C)CC(=O)N(C)[C@H]2C/C=C\CCN(C2=O)[C@@H](Cc2ccc(C)cc2)C(=O)N(C)CC(=O)N[C@@H](CCc2ccc(C(F)(F)F)c(Cl)c2)C(=O)N2C[C@H](OCC)C[C@H]2C(=O)NC2(CC(C)(C)C2)C(=O)N(C)[C@@H](CC(C)(C)C)C(=O)N(C)[C@H](C(=O)N(C)C)CC(=O)N1C` [PP2219], the “NRAS/KRAS (ratio of KD value for NRAS to KD value for KRAS)” value [1, 3] was “A (a compound having 10 or more and less than 20 is denoted as A)” and the “HRAS/KRAS (ratio of KD value for HRAS to KD value for KRAS)” value [2, 4] was “A (a compound having 10 or more and less than 20 is denoted as A)”.
In the case of `CCC[C@H]1C(=O)N[C@@H](C2CCCCC2)C(=O)N(C)CC(=O)N(C)[C@H]2C/C=C\CCN(C2=O)[C@@H](Cc2ccc(C)cc2)C(=O)N(C)CC(=O)N[C@@H](CCc2ccc(C(F)(F)F)c(Cl)c2)C(=O)N2C[C@H](OCC)C[C@H]2C(=O)NC2(CC(C)(C)C2)C(=O)N(C)[C@@H](CC(C)C)C(=O)N(C)[C@H](C(=O)N(C)C)CC(=O)N1C` [PP3021], the “NRAS/KRAS (ratio of KD value for NRAS to KD value for KRAS)” value [1, 3] is reported as “AA (a compound having 20 or more is denoted as AA)” and the “HRAS/KRAS (ratio of KD value for HRAS to KD value for KRAS)” value [2, 4] is reported as “A (a compound having 10 or more and less than 20 is denoted as A)”.
With `C#CCN1CC(=O)N(C)[C@H]2C/C=C\CCN(C2=O)[C@@H](Cc2ccc(C)cc2)C(=O)N(C)CC(=O)N[C@@H](CCc2ccc(C(F)(F)F)c(OC)c2)C(=O)N2C[C@H](OCC)C[C@H]2C(=O)NC2(CC(C)(C)C2)C(=O)N(C)[C@@H](C2CCCC2)C(=O)N(C)[C@H](C(=O)N(C)C)CC(=O)N(C)[C@@H](CCC)C(=O)N[C@@H]([C@@H](C)CC)C1=O` [PP2099] the “NRAS/KRAS (ratio of KD value for NRAS to KD value for KRAS)” value [1, 3] was “A (a compound having 10 or more and less than 20 is denoted as A)” and the “HRAS/KRAS (ratio of KD value for HRAS to KD value for KRAS)” value [2, 4] was “A (a compound having 10 or more and less than 20 is denoted as A)”.
For `CCC[C@H]1C(=O)N[C@@H]([C@@H](C)CC)C(=O)N(C)CC(=O)N(C)[C@H]2C/C=C\CCN(C2=O)[C@@H](Cc2ccc(C(F)(F)F)cc2)C(=O)N(C)CC(=O)N[C@@H](CCc2cc(C)c(C3CC3)c(C)c2)C(=O)N2C[C@H](OCC)C[C@H]2C(=O)NC2(CC(C)(C)C2)C(=O)N(C)[C@@H](C2CCCC2)C(=O)N(C)[C@H](C(=O)N(C)C)CC(=O)N1C` [PP2863], the “NRAS/KRAS (ratio of KD value with respect to GDP-bound NRAS wild-type protein to KD value with respect to KRAS)” value [1] was “A (a compound having 10 or more and less than 20 is denoted as A)” and the “HRAS/KRAS (ratio of KD value with respect to GDP-bound HRAS wild-type protein to KD value with respect to KRAS)” value [2] was “A (a compound having 10 or more and less than 20 is denoted as A)”.
`CCO[C@@H]1C[C@H]2C(=O)NC3(CCC3)C(=O)N(C)[C@@H](C3CCCC3)C(=O)N(C)[C@H](C(=O)N(C)C)CC(=O)N(C)[C@@H](CC)C(=O)N[C@@H]([C@@H](C)CC)C(=O)N3CCC[C@H]3C(=O)N(C)[C@H]3C/C=C\CCN(C3=O)[C@@H](Cc3ccc(C(F)(F)F)cc3)C(=O)N(C)CC(=O)N[C@@H](CCc3cc(F)c(C(F)(F)F)c(F)c3)C(=O)N2C1` [PP1056] was tested, and the “NRAS/KRAS (ratio of KD value for NRAS to KD value for KRAS)” value [1, 3] was “A (a compound having 10 or more and less than 20 is denoted as A)” and the “HRAS/KRAS (ratio of KD value for HRAS to KD value for KRAS)” value [2, 4] was “A (a compound having 10 or more and less than 20 is denoted as A)”.
For `CCCOC[C@H]1C(=O)N[C@@H]([C@@H](C)CC)C(=O)N(C)CC(=O)N(C)[C@H]2C/C=C\CCN(C2=O)[C@@H](Cc2ccc(C)cc2)C(=O)N(C)CC(=O)N[C@@H](CCc2ccc(C(F)(F)F)c(OC)c2)C(=O)N2C[C@H](OCC)C[C@H]2C(=O)N(C)C2(CCC2)C(=O)N(C)[C@@H](C(CC)CC)C(=O)N(C)[C@H](C(=O)N(C)C)CC(=O)N1C` [PP2323], the “NRAS/KRAS (ratio of KD value for NRAS to KD value for KRAS)” value [1, 3] was “A (a compound having 10 or more and less than 20 is denoted as A)” and the “HRAS/KRAS (ratio of KD value for HRAS to KD value for KRAS)” value [2, 4] was “A (a compound having 10 or more and less than 20 is denoted as A)”.
`CCCO[C@@H]1CCN2C(=O)[C@H](CCc3cc(F)c(C(F)(F)F)c(F)c3)NC(=O)CN(C)C(=O)[C@H](Cc3ccc(C(F)(F)F)cc3)N3CCCCC[C@@H](C3=O)N(C)C(=O)CN(C)C(=O)[C@H]([C@@H](C)CC)NC(=O)[C@H](CC(C)C)N(C)C(=O)C[C@@H](C(=O)N3CCOCC3)N(C)C(=O)[C@H](C3CCCC3)N(C)C(=O)C3(CCC3)NC(=O)[C@H]12` [PP1083] was tested, and the “NRAS/KRAS (ratio of KD value for NRAS to KD value for KRAS)” value [1, 3] was “B (a compound having 3 or more and less than 10 is denoted as B)” and the “HRAS/KRAS (ratio of KD value for HRAS to KD value for KRAS)” value [2, 4] was “B (a compound having 3 or more and less than 10 is denoted as B)”.
With `CCC[C@H]1C(=O)N[C@@H]([C@@H](C)CC)C(=O)N(C)CC(=O)N(C)[C@H]2C/C=C\CCN(C2=O)[C@@H](Cc2ccc(C)cc2)C(=O)N(C)CC(=O)N[C@@H](CCc2cc(F)c(C(F)(F)F)c(F)c2)C(=O)N2C[C@H](OCC)C[C@H]2C(=O)NC2(CC(C)(C)C2)C(=O)N(C)[C@@H](CC2CC2)C(=O)N(C)[C@H](C(=O)N(C)C)CC(=O)N1C` [PP2797] the “NRAS/KRAS (ratio of KD value with respect to GDP-bound NRAS wild-type protein to KD value with respect to KRAS)” value [1] was “A (a compound having 10 or more and less than 20 is denoted as A)” and the “HRAS/KRAS (ratio of KD value with respect to GDP-bound HRAS wild-type protein to KD value with respect to KRAS)” value [2] was “A (a compound having 10 or more and less than 20 is denoted as A)”.
In the case of `CCC(CC)[C@H]1C(=O)N(C)[C@H](C(=O)N(C)C)CC(=O)N(C)[C@@H](COC)C(=O)N[C@@H]([C@@H](C)CC)C(=O)N(C)CC(=O)N(C)[C@H]2C/C=C\CCN(C2=O)[C@@H](Cc2ccc(C)cc2)C(=O)N(C)CC(=O)N[C@@H](CCc2ccc(C(F)(F)F)c(OC)c2)C(=O)N2CCOC[C@H]2C(=O)NC2(CC(C)(C)C2)C(=O)N1C` [PP2938], the “NRAS/KRAS (ratio of KD value with respect to GDP-bound NRAS wild-type protein to KD value with respect to KRAS)” value [1] is reported as “AA (a compound having 20 or more is denoted as AA)” and the “HRAS/KRAS (ratio of KD value with respect to GDP-bound HRAS wild-type protein to KD value with respect to KRAS)” value [2] is reported as “A (a compound having 10 or more and less than 20 is denoted as A)”.
`CCO[C@@H]1C[C@H]2C(=O)NC3(CCC3)C(=O)N(C)[C@@H](C3CCCC3)C(=O)N(CCC3CCC3)[C@H](C(=O)N3CCOCC3)CC(=O)N(C)[C@@H](CC(C)C)C(=O)N[C@@H]([C@@H](C)CC)C(=O)N(C)CC(=O)N(C)[C@H]3CCCCCN(C3=O)[C@@H](Cc3ccc(C(F)(F)F)cc3)C(=O)N(C)CC(=O)N[C@@H](CCc3cc(F)c(C(F)(F)F)c(F)c3)C(=O)N2C1` [PP0640] was tested, and the “NRAS/KRAS (ratio of KD value with respect to NRAS to KD value with respect to KRAS)” value [1, 3] was “B (a compound having 3 or more and less than 10 is denoted as B)” and the “HRAS/KRAS (ratio of KD value with respect to HRAS to KD value with respect to KRAS)” value [2, 4] was “B (a compound having 3 or more and less than 10 is denoted as B)”.
